# Results as given in US9579318B2, “Histamine 4 receptor partial agonists, inverse agonists or antagonists for use in treating non-autoimmune uveitis” (UCL BUSINESS PLC, priority 2013, dated 2017).
# Experiments:
# [1] = system: experimental autoimmune uveitis (EAU) in C57B1/6 mice; test: Experimental autoimmune uveitis (EAU) model, therapeutic treatment, histological scoring; type: in vivo; conditions: EAU C57B1/6 mice, disease established, 5 doses, eyes harvested day 19 (FIG. 1)
# Source text: Whilst CD4+T cells are crucial for disease induction, it is now established in the literature (see Dick et al 2012) that tissue resident cells (microglia, macrophages) and infiltrating inflammatory cells (CD11b+granulocytes) contribute to the perpetuation of the inflammation in the C57BL/6 mouse, where evidence of retinal inflammation can be observed up to day 56 post immunization. In our study EAU was induced in C57B1/6 mice using subcutaneous administration of IRBP peptide emulsified in complete Freund's adjuvant (CFA) supplemented with […] mycobacterium, and intraperitoneal immunisation with Pertussis toxin. Clinical signs of EAU disease were monitored using non-invasive retinal fundus imaging (TEFI) until signs of retinal inflammatory disease were observed (usually by day 14). At this point mice were divided into treatment groups. A total of 45 mice were used, with groups as follows: CFA controls n=4; EAU controls n=6; JNJ 7777120 16 mg/kg n=5; 994 10 mg/kg n=5; 994 30 mg/kg n=5; 994 100 mg/kg n=5; 1006 10 mg/kg n=5; 1006 30 mg/kg n=5; 1006 100 mg/kg n=5. Each treatment group of mice received 5 intraperitoneal doses of compound, once per day, until day 19 when eyes were harvested. At this point eyes were processed and fixed, and histological sections were prepared. Histological scoring by light microscopy was done according to established methods (Gegg et al, 2005) where a score of 1.0 reflects inflammatory cells present in the vitreous cavity but not throughout the retinal layers, and the photoreceptor layer is as normal. A score of 2.0 reflects cells within the outer retinal layers, with some granuloma formation. A score of 3.0 reflects cells within the photoreceptor layer, some retinal folding, a focal loss of photoreceptor cells. […] This is an impressive effect since disease was already established. In most treatment studies mice are pretreated with drug prior to inducing EAU.
# [2] = system: endotoxin induced uveitis (EIU) in mice; test: Endotoxin induced uveitis (EIU) model, CD11b+ cells in retina by flow cytometry; type: in vivo; conditions: pretreated with 0.1, 1.0 and 10.0 mM eyedrops twice daily for 3 days before LPS, eyes harvested 24 hours later (FIG. 2)
# Experimental: EIU is a more acute form of anterior uveitis, induced by intraperitoneal immunization with LPS (endotoxin), and clinical signs of uveitis can be observed within 24-48 hours post immunisation. Due to the narrow time frame of disease, in our study mice (n=2 per group) were pretreated with three different concentrations of JNJ777120 compound (0.1, 1.0 and 10.0 mM) given twice daily as eyedrops for 3 days prior to inducing EIU, and eyes harvested 24 hours later. In this study, retinas were dissected from each eye and single cell suspensions prepared for staining with CD11b (to stain for granulocytes), and analysed by flow cytometry, Each eye was kept separate, so results are shown as means of 4 retinae in each group, in comparison with 6 eyes from 3 EIU non-treated control mice.
smiles,measurement,setting,value
"CN1CCN(C(=O)c2cc3cc(Cl)ccc3[nH]2)CC1 [JNJ7777120, 1-[(5-chloro-1H-indol-2-yl)carbonyl]-4-methylpiperazine]","histological scores (retinal inflammation, light microscopy)",[1]; 16 mg/kg i.p. once per day,reduced the histological scores to control levels
same,levels of infiltrating granulocytes (numbers of CD11b+ cells in retina),[2],significantly decreased the levels of infiltrating granulocytes
Cc1ccc(CNc2cc(N3CCN(C)CC3)nc(N)n2)cc1.O=C(O)/C=C\C(=O)O [compound 994],"histological scores (retinal inflammation, light microscopy)",[1]; 100 mg/kg i.p. once per day,reduced the histological scores to control levels
CN1CCN(c2cc(NCc3c(Cl)cccc3Cl)nc(N)n2)CC1.O=C(O)/C=C\C(=O)O [compound 1006],"histological scores (retinal inflammation, light microscopy)",[1]; 30 mg/kg i.p. once per day,reduced the histological scores to control levels
